Data from ChEMBL document CHEMBL5303573, “Mapping human microbiome drug metabolism by gut bacteria and their genes” (Nature, 2019).

Experiments:
[1] = The drug is tested on Odoribacter splanchnicus strain: fecal isolate for biotransformation. The drug concentrations were measured before and after a 12-h incubation by liquid-chromatography-coupled mass spectrometry (LC–MS); conditions: 2 µM
[2] = The drug is tested on Clostridium sp. strain: fecal isolate for biotransformation. The drug concentrations were measured before and after a 12-h incubation by liquid-chromatography-coupled mass spectrometry (LC–MS); conditions: 2 µM
[3] = The drug is tested on Clostridium ramosum strain: DSM1402 for biotransformation. The drug concentrations were measured before and after a 12-h incubation by liquid-chromatography-coupled mass spectrometry (LC–MS); conditions: thomasclavelia ramosa, 2 µM
[4] = The drug is tested on Coprococcus comes strain: ATCC27758 for biotransformation. The drug concentrations were measured before and after a 12-h incubation by liquid-chromatography-coupled mass spectrometry (LC–MS); format: ADME; design: dose 2 uM, timepoint 0 vs 12 hours; conditions: 2 µM
[5] = The drug is tested on Subdoligranulum variabile strain: DSM15176 for biotransformation. The drug concentrations were measured before and after a 12-h incubation by liquid-chromatography-coupled mass spectrometry (LC–MS); conditions: 2 µM
[6] = biological target: T1, Sialic acid-specific acetylesterase (Bacteroides thetaiotaomicron, UniProt Q8A331); assay: (§1) The drug is tested on Bacteroides thetaiotaomicron strain: VPI-5482 for biotransformation. The drug concentrations were measured before and after a 12-h incubation by liquid-chromatography-coupled mass spectrometry (LC–MS); format: ADME; design: dose 2 uM; conditions: 2 µM
T1 sequence (Q8A331 whole entry): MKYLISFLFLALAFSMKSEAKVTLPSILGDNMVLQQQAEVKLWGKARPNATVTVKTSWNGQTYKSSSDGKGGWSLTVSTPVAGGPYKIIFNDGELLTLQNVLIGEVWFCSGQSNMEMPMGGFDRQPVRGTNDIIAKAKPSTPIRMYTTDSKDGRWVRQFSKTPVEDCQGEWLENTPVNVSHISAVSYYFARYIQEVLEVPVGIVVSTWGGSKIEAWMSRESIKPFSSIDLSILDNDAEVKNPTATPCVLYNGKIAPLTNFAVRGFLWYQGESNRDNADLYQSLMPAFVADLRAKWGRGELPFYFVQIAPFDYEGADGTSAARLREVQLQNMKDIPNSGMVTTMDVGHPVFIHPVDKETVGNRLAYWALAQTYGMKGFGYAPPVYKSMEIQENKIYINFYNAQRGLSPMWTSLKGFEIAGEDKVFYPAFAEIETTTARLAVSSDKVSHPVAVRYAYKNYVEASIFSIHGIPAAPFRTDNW

Xylanase = biological target: T2, Xylanase (Bacteroides thetaiotaomicron, UniProt Q8A8H5); assay: as §1; format: ADME; design: dose 2 uM; conditions: 2 µM
T2 sequence (Q8A8H5 whole entry): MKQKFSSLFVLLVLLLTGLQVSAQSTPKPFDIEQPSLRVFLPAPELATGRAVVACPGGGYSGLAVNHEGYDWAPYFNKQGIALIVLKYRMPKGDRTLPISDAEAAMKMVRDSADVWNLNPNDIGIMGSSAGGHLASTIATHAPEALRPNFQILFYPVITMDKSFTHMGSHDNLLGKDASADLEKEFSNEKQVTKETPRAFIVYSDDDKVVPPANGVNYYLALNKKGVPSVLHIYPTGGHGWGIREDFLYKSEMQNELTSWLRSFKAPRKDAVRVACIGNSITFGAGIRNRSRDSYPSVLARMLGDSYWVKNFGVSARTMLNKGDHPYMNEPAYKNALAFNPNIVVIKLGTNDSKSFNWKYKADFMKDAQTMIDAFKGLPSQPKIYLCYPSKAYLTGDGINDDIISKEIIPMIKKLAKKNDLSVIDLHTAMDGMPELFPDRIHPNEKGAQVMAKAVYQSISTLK

Diguanylate cyclase = biological target: T3, Diguanylate cyclase (Collinsella aerofaciens, UniProt A4EB91); assay: (§2) The drug is tested on Collinsella aerofaciens strain: ATCC25986 for biotransformation. The drug concentrations were measured before and after a 12-h incubation by liquid-chromatography-coupled mass spectrometry (LC–MS); format: ADME; design: dose 2 uM; conditions: 2 µM
T3 sequence (A4EB91 whole entry): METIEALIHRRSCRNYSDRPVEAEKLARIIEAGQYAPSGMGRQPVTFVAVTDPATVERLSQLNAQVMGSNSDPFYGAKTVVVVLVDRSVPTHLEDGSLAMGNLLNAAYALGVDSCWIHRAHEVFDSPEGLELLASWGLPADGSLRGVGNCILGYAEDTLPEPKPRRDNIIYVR

Flavodoxin = biological target: T4, Flavodoxin (Collinsella aerofaciens, UniProt A4ED08); assay: as §2; format: ADME; design: dose 2 uM; conditions: 2 µM
T4 sequence (A4ED08 whole entry): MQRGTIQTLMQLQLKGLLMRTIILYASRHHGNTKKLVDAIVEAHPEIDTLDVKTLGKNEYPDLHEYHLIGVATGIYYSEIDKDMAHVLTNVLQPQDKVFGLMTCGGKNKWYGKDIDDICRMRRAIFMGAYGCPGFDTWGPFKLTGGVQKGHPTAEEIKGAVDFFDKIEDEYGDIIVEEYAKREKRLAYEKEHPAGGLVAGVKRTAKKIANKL

GDSL-like protein = biological target: T5, GDSL-like protein (Collinsella aerofaciens, UniProt A4E7D0); assay: as §2; format: ADME; design: dose 2 uM; conditions: 2 µM
T5 sequence (A4E7D0 whole entry): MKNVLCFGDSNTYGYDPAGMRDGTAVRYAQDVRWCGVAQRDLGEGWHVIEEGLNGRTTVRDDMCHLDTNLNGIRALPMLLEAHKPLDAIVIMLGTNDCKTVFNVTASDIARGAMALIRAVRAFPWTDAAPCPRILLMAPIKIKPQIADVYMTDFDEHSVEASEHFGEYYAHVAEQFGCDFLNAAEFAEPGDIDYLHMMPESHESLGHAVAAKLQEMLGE

[7] = biological target: T6, Pyridine nucleotide-disulfide oxidoreductase (Collinsella aerofaciens, UniProt A4EBM5); assay: as §2; format: ADME; design: dose 2 uM; conditions: 2 µM
T6 sequence (A4EBM5 whole entry): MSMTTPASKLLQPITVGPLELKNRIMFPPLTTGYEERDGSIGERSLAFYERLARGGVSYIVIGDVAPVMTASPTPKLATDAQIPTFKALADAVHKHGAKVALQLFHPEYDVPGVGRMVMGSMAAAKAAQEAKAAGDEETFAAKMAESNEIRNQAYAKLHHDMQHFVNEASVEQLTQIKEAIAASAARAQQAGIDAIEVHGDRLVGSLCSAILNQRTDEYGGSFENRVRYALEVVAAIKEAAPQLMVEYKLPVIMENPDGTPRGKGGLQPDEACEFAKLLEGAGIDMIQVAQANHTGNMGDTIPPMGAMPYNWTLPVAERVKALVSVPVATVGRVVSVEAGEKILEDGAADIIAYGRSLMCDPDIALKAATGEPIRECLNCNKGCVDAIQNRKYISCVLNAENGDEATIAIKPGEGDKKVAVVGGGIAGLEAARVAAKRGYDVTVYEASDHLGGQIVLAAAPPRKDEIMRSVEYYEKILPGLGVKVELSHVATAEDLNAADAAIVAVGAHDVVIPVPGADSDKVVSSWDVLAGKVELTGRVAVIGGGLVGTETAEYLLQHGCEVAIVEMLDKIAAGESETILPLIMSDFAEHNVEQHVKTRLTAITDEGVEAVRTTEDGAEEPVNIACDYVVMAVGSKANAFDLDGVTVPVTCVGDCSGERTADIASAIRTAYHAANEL

[8] = bacteroides thetaiotaomicron, 12 h, 2 µM
Description: The drug is tested on Bacteroides thetaiotaomicron strain: 7330 for biotransformation. The drug concentrations were measured before and after a 12-h incubation by liquid-chromatography-coupled mass spectrometry (LC–MS)

[9] = akkermansia muciniphila, 12 h, 2 µM
Description: The drug is tested on Akkermansia muciniphila strain: ATCC BAA-835 for biotransformation. The drug concentrations were measured before and after a 12-h incubation by liquid-chromatography-coupled mass spectrometry (LC–MS)

| Structure (SMILES) | Bacterial Biotransformation [1] | Bacterial Biotransformation [2] | Bacterial Biotransformation [3] | Bacterial Biotransformation [4] | Bacterial Biotransformation [5] | Bacterial Biotransformation [6] | Bacterial Biotransformation (Xylanase) | Bacterial Biotransformation (Diguanylate cyclase) | Bacterial Biotransformation (Flavodoxin) | Bacterial Biotransformation (GDSL-like protein) | Bacterial Biotransformation [7] | Bacterial Biotransformation [8] | Bacterial Biotransformation [9] |
| --- | --- | --- | --- | --- | --- | --- | --- | --- | --- | --- | --- | --- | --- |
| CC(=O)Oc1ccc(C(c2ccc(OC(C)=O)cc2)c2ccccn2)cc1 [BISACODYL] | Compound metabolized | Compound metabolized | Compound metabolized | Compound metabolized | Compound metabolized | Compound metabolized | Compound metabolized | Compound NOT metabolized | Compound NOT metabolized | Compound metabolized | Compound NOT metabolized | Compound metabolized | Compound metabolized |
| CCOC(=O)C1=C(C)NC(C)=C(C(=O)OC)C1c1cccc([N+](=O)[O-])c1 (stereo not given) [NITRENDIPINE] | Compound metabolized | Compound metabolized | Compound metabolized | Compound metabolized | Compound metabolized | Compound NOT metabolized | Compound metabolized | Compound metabolized | Compound NOT metabolized | Compound NOT metabolized | Compound NOT metabolized | Compound metabolized | Compound metabolized |
| COc1ccnc(C[S+]([O-])c2nc3ccc(OC(F)F)cc3[nH]2)c1OC (stereo not given) [PANTOPRAZOLE] | Compound metabolized | Compound metabolized | Compound metabolized | Compound metabolized | Compound metabolized | Compound NOT metabolized | Compound NOT metabolized | Compound NOT metabolized | Compound NOT metabolized | Compound NOT metabolized | Compound NOT metabolized | Compound metabolized | Compound metabolized |
| C#C[C@]1(O)CC[C@H]2[C@@H]3CCC4=Cc5oncc5C[C@]4(C)[C@H]3CC[C@@]21C [DANAZOL] | Compound metabolized | Compound metabolized | Compound metabolized | Compound metabolized | Compound metabolized | Compound NOT metabolized | Compound NOT metabolized | Compound NOT metabolized | Compound NOT metabolized | Compound NOT metabolized | Compound NOT metabolized | Compound metabolized | Compound metabolized |
| CC(=O)SCC(Cc1ccccc1)C(=O)NCC(=O)OCc1ccccc1 (stereo not given) [RACECADOTRIL] | Compound metabolized | Compound metabolized | Compound NOT metabolized |  |  | Compound metabolized | Compound metabolized | Compound NOT metabolized | Compound NOT metabolized | Compound NOT metabolized | Compound NOT metabolized | Compound metabolized | Compound metabolized |
| O=C(O)c1cc(/N=N/c2ccc(S(=O)(=O)Nc3ccccn3)cc2)ccc1O [SULFASALAZINE] | Compound metabolized | Compound metabolized | Compound metabolized | Compound metabolized | Compound metabolized | Compound NOT metabolized |  | Compound NOT metabolized | Compound NOT metabolized |  | Compound NOT metabolized | Compound metabolized | Compound metabolized |
| CCS(=O)(=O)CCn1c([N+](=O)[O-])cnc1C [TINIDAZOLE] | Compound metabolized | Compound metabolized | Compound metabolized | Compound metabolized | Compound metabolized | Compound NOT metabolized | Compound NOT metabolized |  | Compound NOT metabolized | Compound NOT metabolized | Compound metabolized | Compound metabolized | Compound metabolized |
| CC(=O)OCC(=O)NCCCOc1cccc(CN2CCCCC2)c1 [ROXATIDINE ACETATE] | Compound metabolized |  | Compound metabolized | Compound metabolized | Compound metabolized | Compound NOT metabolized | Compound metabolized | Compound NOT metabolized | Compound NOT metabolized | Compound NOT metabolized | Compound NOT metabolized | Compound metabolized | Compound NOT metabolized |
| Nc1ccc(/N=N/c2ccccc2)c(N)n1 [PHENAZOPYRIDINE] | Compound metabolized | Compound metabolized | Compound metabolized | Compound metabolized | Compound metabolized | Compound NOT metabolized | Compound NOT metabolized | Compound NOT metabolized | Compound metabolized | Compound NOT metabolized | Compound NOT metabolized | Compound metabolized |  |
